This is an account of results in paper PMC5846726, “Characterization of the Mel1c melatoninergic receptor in platypus (Ornithorhynchus anatinus)” (PLoS ONE, 2018).

The target in one experiment is hMT1 (Homo sapiens, UniProt P48039). Put plainly: 2-[125I]-iodomelatonin competition binding, human MT1. Set-up: hMT1: unit not given here. To be noted: membranes from stably transfected CHO cells, radioligand 2-[125I]-iodomelatonin; for Ki: read-out: hMT1 (converted). As to the method:
(§1) This approach has been described very often by our laboratory and others. […] The results were expressed as Ki, taking into account the concentration of radioligand used in each experiment. […] The reaction was stopped by rapid filtration through GF/B Unifilters, followed by three successive washes with ice-cold buffer. Data were analyzed by using the program PRISM (GraphPad Software Inc., San Diego, CA). For saturation assays, the density of binding sites (Bmax) and the dissociation constant of the radioligand (KD) were calculated according to the Scatchard method. […] A similar protocol was used when the binding was performed on whole cells, as described by Legros et al.. As per Plos One policy, all the raw data–listings from radioactivity counter are attached as raw files (Supplementary Tables A to M in S1 Data).

In experiment [1] the target is T1, Platypus Mel1C (Ornithorhynchus anatinus, UniProt A0A2P1K6N2). Kind of experiment: 2-[125I]-iodomelatonin competition binding, transiently transfected COS7 cells, platypus Mel1c. To be noted: COS7 cells transiently transfected with Mel1c gene; radioligand 2-[125I]-iodomelatonin; two transfections, triplicate. As to the method: (§2) COS7 cells obtained from the American Type Culture Collection were maintained in DMEM GlutaMAX (Thermo Fisher Scientific, Waltham, USA) supplemented with 10% (v/v) fetal calf serum. Nucleofection of COS7 cells was performed according to the manufacturer's instructions using the Nucleofector machine (Amaxa, Cologne, Germany). Adherent COS7 cells were washed in phosphate-buffered saline (PBS), trypsinized, and gently resuspended in V nucleofection solution to a final concentration of 7 × 10^6 cells/100 μl. Next, 5 μg of pCIneo/Mel1c vector was mixed with 100 μl of the COS7 cell suspension, transferred to a […] electroporation cuvette, and nucleofected using program A024 and an Amaxa Nucleofector apparatus. Just after the nucleofection, 500 μl of media supplemented with 20% (v/v) fetal calf serum was added to the cell suspension and cultured in a humidified 37°C, 5% CO2 incubator for 20 minutes. Fourteen million cells were transferred to a T225 flask containing 50 ml of media supplemented with 20% (v/v) fetal calf serum and cultured in a humidified 37°C, 5% CO2 incubator. Two days after transfection, the cells were harvested in PBS, pelleted, and stored at -80°C until use.
T1 sequence (A0A2P1K6N2 1-349): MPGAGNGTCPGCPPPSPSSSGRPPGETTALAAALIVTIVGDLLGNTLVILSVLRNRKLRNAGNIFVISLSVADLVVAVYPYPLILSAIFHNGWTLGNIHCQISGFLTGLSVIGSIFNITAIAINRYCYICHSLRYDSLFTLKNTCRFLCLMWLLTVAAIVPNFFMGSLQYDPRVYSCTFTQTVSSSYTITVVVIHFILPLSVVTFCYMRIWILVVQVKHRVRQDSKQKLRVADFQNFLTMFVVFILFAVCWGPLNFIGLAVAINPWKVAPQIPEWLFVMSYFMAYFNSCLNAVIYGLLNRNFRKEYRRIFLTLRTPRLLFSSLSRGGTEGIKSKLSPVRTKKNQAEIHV
as §1
(§3) To obtain stable expression of the receptor for future studies, a preliminary step involving transient expression of the receptor was performed. The Mel1c receptors from the three species were expressed in transiently transfected COS7 cells. A limited number of compounds were tested in order to gain a preliminary perception of the characteristics of Mel1c from these species.

In another experiment the target is T2, X. laevis Mel1c receptor (Xenopus laevis, UniProt P49219).
T2 construct: expressed in transfected cells; host or cells: COS7 (transient nucleofection, pCIneo vector)
T2 sequence (P49219 1-354 isoform P49219-2): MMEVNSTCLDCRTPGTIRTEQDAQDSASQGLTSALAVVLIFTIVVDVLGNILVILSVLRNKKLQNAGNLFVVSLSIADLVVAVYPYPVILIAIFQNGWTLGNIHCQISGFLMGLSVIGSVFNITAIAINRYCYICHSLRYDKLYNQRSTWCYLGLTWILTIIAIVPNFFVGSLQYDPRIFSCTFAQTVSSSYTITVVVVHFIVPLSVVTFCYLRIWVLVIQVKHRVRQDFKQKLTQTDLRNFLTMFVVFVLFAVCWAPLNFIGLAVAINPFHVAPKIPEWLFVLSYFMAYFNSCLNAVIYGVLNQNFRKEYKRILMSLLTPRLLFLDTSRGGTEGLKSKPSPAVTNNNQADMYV
Put plainly: 2-[125I]-iodomelatonin competition binding, transiently transfected COS7 cells, Xenopus Mel1c. To be noted: COS7 cells transiently transfected with Mel1c gene; radioligand 2-[125I]-iodomelatonin; two transfections, triplicate; read-out: pKi Xenopus laevis (converted). As to the method:
as §2, §1, §3

A further experiment addresses T3, Xenopus Mel1C (Xenopus laevis, UniProt P49219).
T3 construct: expressed in transfected cells
T3 sequence (P49219 1-420): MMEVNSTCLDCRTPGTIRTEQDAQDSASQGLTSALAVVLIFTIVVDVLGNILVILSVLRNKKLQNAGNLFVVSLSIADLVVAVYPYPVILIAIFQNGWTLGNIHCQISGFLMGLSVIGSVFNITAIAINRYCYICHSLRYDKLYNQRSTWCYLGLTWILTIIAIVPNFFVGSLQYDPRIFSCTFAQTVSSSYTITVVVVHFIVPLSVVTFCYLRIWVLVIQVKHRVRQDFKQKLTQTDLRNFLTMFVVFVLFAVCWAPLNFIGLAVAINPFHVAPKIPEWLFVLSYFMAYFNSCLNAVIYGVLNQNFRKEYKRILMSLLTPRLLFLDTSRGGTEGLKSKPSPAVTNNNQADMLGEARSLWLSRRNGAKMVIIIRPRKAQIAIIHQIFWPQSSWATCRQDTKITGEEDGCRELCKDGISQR
Kind of experiment: 2-[125I]-iodomelatonin competition binding, membranes from stably transfected CHO cells, Xenopus Mel1c. To be noted: radioligand 2-[125I]-iodomelatonin. As to the method:
(§4) CHO-Flp-In cells (Thermo Fisher Scientific, Waltham, USA) were cultivated in the presence of zeocin (0.1 mg/ml). The cells were cotransfected with either platypus (cloned sequence that will be submitted to GenBank) Mel1c/pcDNA5-FRT (platypus Mel1c) or X. laevis (NM 001087919.1) Mel1c/pcDNA5-FRT (clawed frog Mel1c) and Flp recombinase expression pOG44 plasmid using PEIpro (Invitrogen, Carlsbad, CA). CHO cells stably expressing platypus Mel1c or clawed frog Mel1c were selected using hygromycin (0.6 mg/ml). CHO-Flp-In-platypus Mel1c cells were grown in HAM F12 with 2 mM glutamine and supplemented with 10% fetal calf serum. Cells were selected using antibiotic pressure (hygromycin) for 72 h. […] After confirmation of the presence of the transgene, the cells were amplified up to 2 x 10^9 cells. This material was used to prepare the cell membranes used in further pharmacological experiments.
(§5) This standard procedure was described in a previous experiment with CHO cells expressing the sheep MT2 receptor [23]. […] The resulting pellet was suspended in 5 mM Tris/HCl (pH 7.4) containing 2 mM EDTA and homogenized using a Kinematica polytron. The homogenate was then centrifuged (20,000g, 30 min, 4°C) and the resulting pellet suspended in 75 mM Tris/HCl (pH 7.4) containing 2 mM EDTA and 12.5 mM MgCl2. The protein content was determined according to the method of Lowry et al. using the Bio-Rad kit (Bio-Rad SA, Ivry-sur-Seine, France). Aliquots of membrane preparations were stored in binding buffer (50 mM Tris/HCl, pH 7.4 containing 5 mM MgCl2 and 1 mM EDTA) at –80°C until use.
as §1

Experiment [2] has as its target T1, Platypus Mel1C. Kind of experiment: 2-[125I]-iodomelatonin competition binding, membranes from stably transfected CHO cells, platypus Mel1c. As to the method: as §4, §5, §1
The target of another experiment is T4, hMT2 (Homo sapiens, UniProt P49286).
T4 sequence (P49286 1-362): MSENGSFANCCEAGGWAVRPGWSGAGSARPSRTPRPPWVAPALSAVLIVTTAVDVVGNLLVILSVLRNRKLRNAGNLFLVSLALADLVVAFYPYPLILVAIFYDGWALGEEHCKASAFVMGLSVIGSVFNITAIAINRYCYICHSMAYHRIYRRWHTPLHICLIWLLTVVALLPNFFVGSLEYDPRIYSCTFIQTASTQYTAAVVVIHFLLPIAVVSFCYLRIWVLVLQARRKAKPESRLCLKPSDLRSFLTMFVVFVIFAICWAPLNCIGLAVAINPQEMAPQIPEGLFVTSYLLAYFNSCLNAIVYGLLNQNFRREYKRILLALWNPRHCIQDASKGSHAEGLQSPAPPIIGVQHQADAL
Kind of experiment: 2-[125I]-iodomelatonin competition binding, human MT2. To be noted: membranes from stably transfected CHO cells; radioligand 2-[125I]-iodomelatonin; read-out: hMT2 (converted). As to the method:
as §1

A further experiment deals with T5, G. gallus Mel1c receptor (Gallus gallus, UniProt P49288).
T5 construct: expressed in transfected cells; host or cells: COS7 (transient nucleofection, pCIneo vector)
T5 sequence (P49288 1-346): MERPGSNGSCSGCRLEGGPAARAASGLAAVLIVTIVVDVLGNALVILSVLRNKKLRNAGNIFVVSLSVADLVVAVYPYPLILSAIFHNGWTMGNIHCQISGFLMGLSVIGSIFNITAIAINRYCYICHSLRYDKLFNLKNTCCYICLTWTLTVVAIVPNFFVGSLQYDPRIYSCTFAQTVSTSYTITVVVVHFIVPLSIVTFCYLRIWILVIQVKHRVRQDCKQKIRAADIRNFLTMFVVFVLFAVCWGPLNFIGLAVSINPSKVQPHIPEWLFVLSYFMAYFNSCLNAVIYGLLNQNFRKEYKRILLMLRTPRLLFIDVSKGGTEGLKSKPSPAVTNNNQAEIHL
Put plainly: 2-[125I]-iodomelatonin competition binding, transiently transfected COS7 cells, chicken Mel1c. As to the method:
as §2, §1, §3

The subject of another experiment is quinone reductase 2; QR2. Set-up: method as in PMID 10913150. To be noted: introduction statement, 'in the 10 μM range'; cited from earlier work.
For another experiment, the system named is GPR50. To be noted: mammalian melatonin-related receptor; cited from earlier work.
A further experiment has as its system MT2. To be noted: introduction statement; cited from earlier work.
The next experiment concerns MT1. To be noted: introduction statement; cited from earlier work.
Where [3] appears, read: membranes from stably transfected CHO cells, radioligand 2-[125I]-iodomelatonin, read-out: Platypus Mel1C (converted).

Like-named read-outs stand apart in the source and are kept apart here. Where only a bound is given, the exact number is not on record here.

Chain of hMT1 (P48039 whole entry): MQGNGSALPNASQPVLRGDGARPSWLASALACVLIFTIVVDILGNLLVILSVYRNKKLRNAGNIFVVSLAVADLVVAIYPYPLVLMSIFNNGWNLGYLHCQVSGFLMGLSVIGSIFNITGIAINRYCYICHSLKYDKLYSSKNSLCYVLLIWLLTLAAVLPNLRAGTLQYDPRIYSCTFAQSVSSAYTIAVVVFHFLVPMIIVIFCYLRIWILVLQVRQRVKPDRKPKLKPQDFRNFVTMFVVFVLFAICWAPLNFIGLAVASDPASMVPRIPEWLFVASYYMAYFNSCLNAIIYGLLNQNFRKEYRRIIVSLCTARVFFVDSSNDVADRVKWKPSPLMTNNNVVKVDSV

Turning to `CCC(=O)N[C@@H]1Cc2ccccc2[C@H](c2ccccc2)C1` [4P-PDOT, N-[(2S,4S)-4-phenyl-1,2,3,4-tetrahydronaphthalen-2-yl]propanamide], the Ki at hMT1 was 158 nM; on X. laevis Mel1c receptor, 200 nM; at Xenopus Mel1C, 794 nM; on Platypus Mel1C [2] (setting [3]), 631 nM; at hMT2 it was 1.26 nM; at G. gallus Mel1c receptor, 398 nM. For the same molecule, the “pKi Ornithorhyncus anatinus” value on Platypus Mel1C [1] came out at 6.7.

In turn, `CC(=O)NCCc1c(Cc2ccccc2)[nH]c2ccccc12` [Luzindole, N-acetyl-2-benzyltryptamine] had a hMT1 on hMT1 of 6.6. Also, on Platypus Mel1C [1], the “pKi Ornithorhyncus anatinus” value is reported as 5.9. The Ki on X. laevis Mel1c receptor was 2000 nM; at Xenopus Mel1C, 2510 nM; on Platypus Mel1C [2] (setting [3]) it was 2510 nM; on hMT2 it was 25.1 nM; on G. gallus Mel1c receptor it was 3980 nM.

Consider `COc1ccc2[nH]cc(CCNC(C)=O)c2c1` [Melatonin], for which the “affinity of QR2 for melatonin” value in the experiment with quinone reductase 2; QR2 is around 10 µM. In addition, on Platypus Mel1C [1], the “pKi Ornithorhyncus anatinus” value amounted to 8.6. Besides, the Ki at X. laevis Mel1c receptor is 1.58 nM; on Xenopus Mel1C it was 2 nM; on Platypus Mel1C [2] (affinity of platypus Mel1c for melatonin, abstract statement, 'in the 1 nM range') it was around 1 nM; at Platypus Mel1C [2] (setting [3]), 2 nM. In the experiment with GPR50, the “melatonin binding to GPR50” value is given as “does not bind melatonin”. Besides, the “affinity of MT2 for melatonin” value in the experiment on MT2 is at most 1 nM. In addition, the “affinity of MT1 for melatonin” value in the experiment with MT1 is at most 1 nM.

For the molecule `CCc1ccc2scc(CCNC(C)=O)c2c1` [S22153, N-[2-(5-ethylbenzothiophen-3-yl)ethyl]acetamide], the Ki at hMT1 was 6.31 nM; at X. laevis Mel1c receptor, 100 nM; at Xenopus Mel1C, 126 nM; at Platypus Mel1C [2] (setting [3]) it was 50.1 nM; at hMT2 it was 10 nM; on G. gallus Mel1c receptor (COS7 cells transiently transfected with Mel1c gene, radioligand 2-[125I]-iodomelatonin, two transfections, triplicate, read-out: pKi Gallus gallus (converted)) it was 200 nM. In addition, the “pKi Ornithorhyncus anatinus” value on Platypus Mel1C [1] is listed as 7.6.
